# In ChEMBL document CHEMBL3507680, “University of Dundee, Gates Library screen for HepG2 cell viability”:
# Assay: Human HepG2 cell viability assay in 384 well format
# Format: toxicity, cell-based
# Design: dose 125 nL, time 70.5 hour; cytotoxicity at 70.5 h: concentration not given beside the values
# Conditions: HepG2 cells, read-out: Inhibition
row,Structure (SMILES),cytotoxicity at 70.5 h
1,CC(C)(C)c1n[nH]cc1CNC1CCC(C(F)(F)F)CC1 (centres undefined),-0.127%
2,CN(C)S(=O)(=O)N1CCCC1C(=O)N1CCSCC1 (centres undefined),22.8%
3,CCn1c(CN2CCCC(Cn3cncn3)C2)nc2c(F)cccc21 (centres undefined),1.73%
4,COc1ccc(C(=O)O)cc1-c1cccc(C(C)N(C)C)c1 (centres undefined),0.229%
5,CC(NC1(CNC(=O)CC2CCCC2)CCOCC1)c1ccccc1 (centres undefined),-6.24%
6,COCCCNc1ncc(-c2cccc(F)c2)c(-c2nccn2C)n1,-6.45%
7,N#Cc1ccc(C(=O)O)nc1/C=C/c1cccc(Br)c1,-4.7%
8,NC(=O)Cn1ccc(NC(=O)C2(c3ccc(F)cc3)CC2)n1,-11.2%
9,CCOc1cc(C(=O)n2cccn2)cc(OCC)c1OCC,-6.27%
10,Cc1ccc(S(=O)(=O)NC[C@H]2OC[C@@H](NCc3cccnc3)[C@@H]2O)cc1,-7.82%
11,O=c1ccn(Cc2nc(-c3ccccc3F)cs2)c(=O)[nH]1,0.45%
12,O=C(c1ccncc1F)N1Cc2nc(COCC3CC3)oc2C1,-15.8%
13,CC(=O)N1C[C@H](c2cc(O)nc(C)n2)[C@@H](c2ccccc2F)C1,-2.65%
14,O=C(NCCNc1ccc(C(F)(F)F)cn1)c1ccc(Br)cc1,1.55%
15,O=C(NCc1ccccn1)[C@H]1COC[C@H]2CN(C3CCCC3)C[C@H]21,40.2%
16,Cc1ccc(CN2CCn3cc(CNC(=O)c4cnn(C)c4)nc3C2)s1,-102%
17,CCc1ncc2c(n1)CN(C(C(N)=O)c1ccccc1)CC2 (centres undefined),-3.45%
18,O=C(COC1CCCCC1)Nc1ccn(Cc2ccccn2)n1,-5.54%
19,Cc1ccc(N(C)CC(O)COCc2ccccc2F)c(C)c1 (centres undefined),-0.728%
20,OC1CCN(c2ccccc2NCc2nc(-c3cccs3)no2)CC1,-10.7%
21,O=C1CO[C@H]2CN(Cc3ccc(C(F)(F)F)cc3)C[C@H]2N1,-2.56%
22,O=C(c1ccco1)N1CCC2(CC1)C(=O)NCCN2CC1CC1,-26.8%
23,Cc1nc([C@H]2C[C@H]3CN(C(=O)c4ccoc4C)CC[C@@H]3O2)no1,-7.31%

row,Structure (SMILES),cytotoxicity at 70.5 h
1,CO[C@@H]1CO[C@@]2(CCN(C(=O)COc3ccccc3C)C2)C1,-2.61%
2,CCN1CC2(CC1=O)CN(Cc1cccs1)CCN(C(=O)C(C)C)C2 (centres undefined),2.16%
3,N#Cc1ccc(NCc2cccnc2N2CCC(C(N)=O)CC2)cn1,-7.33%
4,CC(c1ccco1)N(C(=O)c1cc2c([nH]c1=O)CCCC2=O)C1CC1 (centres undefined),2.68%
5,CC(=O)N1CC(C(=O)NC(C)c2cnn(C)c2C)C1 (centres undefined),-4.41%
6,CC(C)c1noc(CNc2cccc(-c3nnnn3C)c2)n1,-8.75%
7,c1cn2c(n1)CNCC(COCC1CC1)C2 (centres undefined),-9.26%
8,CC1CCCCN1C(=O)c1nc2c(n1C(C)C)CCN(C(=O)C1CC1)C2 (centres undefined),-8.72%
9,NC(=O)C1CCCN1CCCc1ccc(Cl)cc1 (centres undefined),-5.15%
10,N#Cc1cccnc1NCCNC(=O)N1CCSCC1,9.49%
11,CC(C)c1noc(C(C)N2CCN(Cc3ccco3)CC2)n1 (centres undefined),-9.38%
12,CN(Cc1ccsc1)C(=O)CNC(=O)N1CCc2ccccc2C1,-7.67%
13,CC(=O)N1CCCC1c1ccc(C(=O)N2CCOCC2)s1 (centres undefined),14.5%
14,CCCN(CCC)S(=O)(=O)N(C)Cc1ccncc1,-12.4%
15,O=C(NCC1CC[C@@]2(CNCCOC2)O1)c1cccnc1 (some centres undefined),-2.12%
16,COc1ccc(CCN2CCCC(Cn3nc(C)nc3C)C2)cc1 (centres undefined),-2.31%
17,CCOCC1CN(Cc2ccc3c(c2)OCO3)Cc2ncn(C)c21 (centres undefined),-10.5%
18,CC(C)CNC(=O)C1=NOC2(CCN(Cc3ccc(C(C)C)cc3)C2)C1 (centres undefined),-1.12%
19,CN1CCCC1c1ccc(C(=O)N2CCc3ccccc3C2)s1 (centres undefined),17.6%
20,CNC(=O)[C@@H]1COC[C@H]2CN(C(=O)c3ccc(C)c(F)c3)C[C@H]21,-6.14%
21,COc1c(C)cnc(CN2CCC(N(C)C(=O)C3CC3)CC2)c1C,-10.5%
22,COCCN(Cc1ccoc1)S(=O)(=O)c1ccc(F)c(Cl)c1,42.1%
23,COCC(=O)N1CCC2(CCN(Cc3ccccn3)CC2)CC1,-23.5%

row,Structure (SMILES),cytotoxicity at 70.5 h
1,Cc1cnc(C(=O)N2Cc3ccccc3OC3(CCOCC3)C2)cn1,1.74%
2,CC(=O)N1CC[C@@H]2O[C@H](C(=O)Nc3nc(C)cs3)C[C@@H]21,-3.43%
3,Cc1cnccc1-n1nc(C(C)C)nc1CS(C)(=O)=O,-9.46%
4,CCCC1COCCN1Cc1ccc(NC(C)=O)cc1 (centres undefined),-3.46%
5,COc1ccc2c(c1)CCCN2C(=O)CNCC1CN(C)CCO1 (centres undefined),12.1%
6,CC(C)(C)n1cc(C(=O)NCCN2CCOCC2)c2cccnc21,6.12%
7,O=C(c1cccnc1-n1cncn1)N1CCN(CC2CC2)CC1,-7.39%
8,CN(C)C(=O)CN1CCc2ncnc(C3CC3)c2CC1,2.76%
9,Cc1ccc(-c2nn(-c3cccc(F)c3)cc2CN(CCO)CCO)o1,-17.7%
10,CN(CC1CN(CCn2cc(C#N)cn2)CCO1)c1cccnn1 (centres undefined),-6.68%
11,O=C(Cc1cccc(F)c1)N1CCc2ncnc(NC3CCC3)c2CC1,2.52%
12,Cc1cc(CN(C)C(=O)C2CCS(=O)(=O)C2)no1 (centres undefined),2.42%
13,O=C([C@H]1CC[C@@H]2[C@@H](CCN2Cc2nccs2)O1)N1CCOCC1,-5.21%
14,CC(C)n1cnnc1CN(C)C(=O)c1cccnc1O,-4.11%
15,Cc1cc(Oc2ccccc2)nc(C2CCN(CCO)CC2)n1,-6.09%
16,CC(C)c1noc(CS(=O)(=O)CC(=O)NCC(F)(F)F)n1,-6.46%
17,COc1cc(NC(=O)N2CCCC2c2nncn2C)ccc1Br (centres undefined),-4.18%
18,Cc1nnsc1C(=O)N1CC(c2nc3ccccc3[nH]2)C1,-14.1%
19,CN1CCOC(CNCCCOc2ccc(C#N)cc2)C1 (centres undefined),-5.34%
20,Cc1noc(CN2CCN(C(=O)N(C)C)CC2)n1,-11%
21,COc1ccc2c(c1)NC(=O)C2OC(=O)CCc1ccc(F)cc1 (centres undefined),2.64%
22,CN1CCN(CCCNC(=O)CCc2nc3cc(Br)cnc3[nH]2)CC1,-31%
23,COc1ccc2c(c1)[C@@H](CCNC(C)=O)CC(C)(C)O2,-1.01%

row,Structure (SMILES),cytotoxicity at 70.5 h
1,CCCNC(=O)CN1CCOC(c2ccc(Br)cc2)C1 (centres undefined),-6.67%
2,Cc1nn(C)c2c(N3CCN(C(=O)NC4CCCCC4)CC3)ncnc12,4.87%
3,CCCN1CC2(CCN(c3ncc(F)cn3)CC2)CC1C(=O)O (centres undefined),-7.12%
4,O=S(=O)(c1ccc(-c2cnco2)cc1)N1CCC2(CCCNC2)C1 (centres undefined),-1.83%
5,CCCC(Nc1nc(COCC)nc2c1CCNCC2)c1nccn1C (centres undefined),2.1%
6,CCS(=O)(=O)N1Cc2nccn2CC(CN2CCCC2)C1 (centres undefined),4.02%
7,O=C(CCc1ccccc1)C1CCCN(C(=O)c2ncc(F)cc2F)C1 (centres undefined),-3.9%
8,CC(C)CN1C(=O)CO[C@@H]2CN(C(=O)C3CCOC3)C[C@H]21 (some centres undefined),39.9%
9,c1ccc(Sc2ccc3c(c2)OCO3)c(CNC2=NCCN2)c1,-0.794%
10,Cc1cc(CN(Cc2cccs2)CC2CCCO2)on1 (centres undefined),20.8%
11,COCc1ncn2c1CN(C(=O)c1cnc3ccccc3c1)CC2,1.48%
12,NC(=O)CNC(c1ccccc1)c1ccc(OC(F)F)cc1 (centres undefined),11.2%
13,CC(C)NS(=O)(=O)c1cc(C(=O)O)cc(-c2ccccc2F)c1,-10.8%
14,O=C(c1n[nH]c2ccccc12)N1CCCC1c1noc(C2CC2)n1 (centres undefined),-17.4%
15,O=C(c1ncccn1)N1C[C@H]2CCC[C@@]2(COCC2CCOCC2)C1,-15.9%
16,Clc1ccccc1CCN1CCN(c2ccc3nncn3n2)CC1,-16.3%
17,COCc1ccccc1CNc1nnc(C)c(C)c1C#N,21.2%
18,COc1ccnc(N2CCN(C(=O)c3cc(C4CC4)[nH]n3)CC2)n1,-5.93%
19,CC1(C(=O)N2CCOCC2)CN(Cc2ccccc2F)CCO1 (centres undefined),-11.3%
20,Cn1cccc1C(=O)N1CCC2(CC1)CN(c1cncnc1)C(=O)CO2,8.12%
21,CN(c1ccc(CNc2ccc(Cl)cn2)cc1)S(C)(=O)=O,-4.71%
22,CN1CCN(C(=O)c2cnc3c(cnn3C3CCCC3)c2)CC1,-10%
23,CCSc1cc(C(=O)NCCc2nnc(-c3ccco3)[nH]2)ccn1,20.1%

row,Structure (SMILES),cytotoxicity at 70.5 h
1,COc1ccc(OCCN(C)c2cc(C)nc(N)n2)cc1,-6.24%
2,O=C(CCc1ccc(Br)cc1F)NS(=O)(=O)c1ccc2c(c1)OCCO2,-3.13%
3,CN(C)c1cc(CNC(=O)Nc2ccc(F)cc2)ccn1,12.6%
4,CC1CCN(S(=O)(=O)NCCCn2cncn2)CC1,-0.69%
5,COc1ccc(NCCC(=O)NCc2cccnc2N(C)C)cc1,-8.23%
6,COc1ccc(NC2CCCN(Cc3cnc(N(C)C)s3)C2)cc1OC (centres undefined),-12%
7,O=C(c1ccc(OCC2CC2)nc1)N1CCCC(n2cncn2)C1 (centres undefined),-12.6%
8,COc1ccc(CCC(=O)N2CCCC(n3cncn3)C2)cc1 (centres undefined),-7.91%
9,Cc1cc(C)n(CC2CCCN2C(=O)c2cnc3n[nH]c(C)c3c2)n1 (centres undefined),1.22%
10,Cc1nnc(SCCCNc2cc(C3CC3)ncn2)s1,22.4%
11,Cc1nc(CN2CCC(CNC(=O)CCC3CCCC3)CC2)oc1C,-2.1%
12,Cc1cccc(CN2CCC3(CCCN(C(=O)NC(C)C)C3)C2=O)n1 (centres undefined),-5.48%
13,CCCc1nnsc1C(=O)N1CCN(CC(O)c2ccco2)CC1 (centres undefined),-0.0412%
14,Nc1ccnc(N2CCC(c3nccn3CC3CC3)CC2)n1,17.6%
15,CC(NC(=O)NCCCn1cncn1)c1ccc(F)cc1 (centres undefined),-4.64%
16,CNc1cccc(C2CN(C(=O)c3c[nH]cn3)CCO2)n1 (centres undefined),5.85%
17,NC(=O)CCN(CC(=O)NCc1cccs1)c1ccc(F)cc1,-6.81%
18,c1ccc(OCCNCc2cccs2)nc1,7.79%
19,Cc1ccc(NC2CCN(C(=O)c3ccoc3C)CC2)nn1,-0.801%
20,CC(C)c1nc(C2CCCN2CCc2ccccn2)no1 (centres undefined),-15.3%
21,O=C1CCNC(=O)N1CC(=O)N1CCC1c1ccc(F)cc1 (centres undefined),-10.7%
22,Cc1nc(N)nc(N2CCOc3ccc(CO)cc3C2)c1C,25.5%
